Measurements reported in ChEMBL document CHEMBL1201862, “PubChem BioAssay data set” (2004).
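Dose response: 5 concentrations. Exposure: 48 h. Format: 96-well plates. Endpoint: linear interpolation; highest concentration if not reached. Here, GI50 denotes the concentration required for 50% inhibition of growth.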 Activity calls are given as the source filed them. Rule as the data show it: active = GI50 up to about 1.1 µM and inactive = higher.

What was measured:
Test in all cases: inhibition of tumour cell growth, NCI panel, 48 h
786-0 = test system: 786-0
A498 = test system: A498
A549 = test system: A549
ACHN = test system: ACHN
BT-549 = test system: BT-549
CAKI-1 = test system: CAKI-1
CCRF-CEM = test system: CCRF-CEM
COLO 205 = test system: COLO 205
DLD-1 = test system: DLD-1
DMS-273 = test system: DMS-273
DU-145 = test system: DU-145
EKVX = test system: EKVX
HCC 2998 = test system: HCC 2998
HCT-116 = test system: HCT-116
HCT-15 = test system: HCT-15
HL-60 = test system: HL-60
HOP-18 = test system: HOP-18
HOP-62 = test system: HOP-62
HOP-92 = test system: HOP-92
HT-29 = test system: HT-29
Hs-578T = test system: Hs-578T
IGROV-1 = test system: IGROV-1
K562 = test system: K562
KM-20L2 = test system: KM-20L2
KM12 = test system: KM12
LOX IMVI = test system: LOX IMVI
LXFL 529 = test system: LXFL 529
M14 = test system: M14
M19-MEL = test system: M19-MEL
MCF7 = test system: MCF7
MDA-MB-231 = test system: MDA-MB-231
MDA-MB-435 = test system: MDA-MB-435
MDA-N = test system: MDA-N
MOLT-4 = test system: MOLT-4
Malme-3M = test system: Malme-3M
NCI-H226 = test system: NCI-H226
NCI-H23 = test system: NCI-H23
NCI-H460 = test system: NCI-H460
NCI-H522 = test system: NCI-H522
NCI/ADR-RES = test system: NCI/ADR-RES
OVCAR-3 = test system: OVCAR-3
OVCAR-4 = test system: OVCAR-4
OVCAR-5 = test system: OVCAR-5
OVCAR-8 = test system: OVCAR-8
PC-3 = test system: PC-3
RPMI-8226 = test system: RPMI-8226
RXF 393 = test system: RXF 393
RXF 631 = test system: RXF 631
SF-268 = test system: SF-268
SF-295 = test system: SF-295
SF-539 = test system: SF-539
SK-MEL-28 = test system: SK-MEL-28
SK-MEL-2 = test system: SK-MEL-2
SK-MEL-5 = test system: SK-MEL-5
SK-OV-3 = test system: SK-OV-3
SN12C = test system: SN12C
SNB-19 = test system: SNB-19
SNB-75 = test system: SNB-75
SNB-78 = test system: SNB-78
SR = test system: SR
SW-620 = test system: SW-620
T47D = test system: T47D
TK-10 = test system: TK-10
U-251 = test system: U-251
UACC-257 = test system: UACC-257
UACC-62 = test system: UACC-62
UO-31 = test system: UO-31
XF498 = test system: XF498
DMS-114 = test system: DMS-114

Measured: GI50

C=C(CN(C)C)C(=O)c1ccc(Oc2ccccc2)cc1
3.68 µM: HCT-15
inactive: 786-0 2.15 µM | A498 17.7 µM | A549 19.5 µM | ACHN 1.8 µM | BT-549 6.18 µM | CAKI-1 2.54 µM | DLD-1 2.22 µM | DMS-273 23.6 µM | DU-145 14.5 µM | EKVX 16.9 µM | HCC 2998 17.5 µM | HCT-116 2.16 µM | HOP-18 6.87 µM | HOP-62 19.7 µM | HOP-92 2.18 µM | HT-29 7.82 µM | Hs-578T 8.73 µM | IGROV-1 14.9 µM | K562 1.26 µM | KM-20L2 12.2 µM | KM12 12.8 µM | LOX IMVI 5.57 µM | LXFL 529 2.2 µM | M14 1.76 µM | M19-MEL 4.25 µM | MCF7 3.3 µM | MDA-MB-231 5.81 µM | MDA-MB-435 3.85 µM | MDA-N 3.02 µM | Malme-3M 3.85 µM | NCI-H226 13.6 µM | NCI-H23 7.71 µM | NCI-H460 27.3 µM | NCI-H522 1.55 µM | NCI/ADR-RES 6.75 µM | OVCAR-3 4.86 µM | OVCAR-4 6.19 µM | OVCAR-5 7.4 µM | OVCAR-8 3.28 µM | PC-3 3.98 µM | RXF 393 2.4 µM | RXF 631 19.3 µM | SF-268 14 µM | SF-295 16.7 µM | SF-539 3.13 µM | SK-MEL-28 7.66 µM | SK-MEL-2 9.2 µM | SK-MEL-5 7.21 µM | SK-OV-3 21.3 µM | SN12C 5.37 µM | SNB-19 9.64 µM | SNB-75 15.9 µM | SNB-78 16.3 µM | SW-620 1.31 µM | T47D 2.7 µM | TK-10 5.86 µM | U-251 10.3 µM | UACC-257 8.36 µM | UACC-62 4.39 µM | UO-31 3.53 µM | XF498 14.8 µM
active: CCRF-CEM 0.272 µM | COLO 205 1.04 µM | HL-60 0.695 µM | MOLT-4 0.356 µM | RPMI-8226 0.962 µM | SR 0.692 µM

CCCCCCCCCc1cc(=O)c2c(O)cccc2o1
41.3 µM: HCT-15
inactive: 786-0 51.4 µM | A549 41.8 µM | ACHN 42.7 µM | CAKI-1 69.3 µM | CCRF-CEM 30.8 µM | COLO 205 > 100 µM | DLD-1 61.8 µM | DMS-114 33 µM | DMS-273 41.8 µM | EKVX 51.8 µM | HCC 2998 65 µM | HCT-116 30.3 µM | HL-60 25.2 µM | HOP-18 > 100 µM | HOP-62 > 100 µM | HOP-92 57.5 µM | HT-29 > 10 µM | IGROV-1 79.6 µM | K562 29.2 µM | KM12 40.6 µM | LOX IMVI 22.8 µM | LXFL 529 39.2 µM | M14 39.4 µM | M19-MEL > 10 µM | MOLT-4 20.4 µM | Malme-3M 19.3 µM | NCI-H226 38.1 µM | NCI-H23 65.5 µM | NCI-H460 56.2 µM | NCI-H522 34.9 µM | OVCAR-3 75.9 µM | OVCAR-4 50.7 µM | OVCAR-5 38.8 µM | OVCAR-8 38.7 µM | RPMI-8226 38.2 µM | RXF 393 53 µM | RXF 631 65.6 µM | SF-268 31.8 µM | SF-295 46.3 µM | SF-539 > 100 µM | SK-MEL-28 55.6 µM | SK-MEL-2 23.2 µM | SK-MEL-5 21 µM | SK-OV-3 > 100 µM | SN12C 87.3 µM | SNB-19 74.3 µM | SNB-75 > 10 µM | SNB-78 53 µM | SR 37.4 µM | SW-620 57.9 µM | TK-10 54 µM | U-251 48.1 µM | UACC-257 36.3 µM | UACC-62 58.2 µM | UO-31 37.1 µM | XF498 31.2 µM

CN(C)CCC(=O)N1CCc2c([nH]c3ccccc23)C1c1cccnc1 (stereo not drawn)
inactive: 786-0 > 100 µM | A498 > 100 µM | A549 > 100 µM | ACHN > 100 µM | CAKI-1 > 100 µM | CCRF-CEM > 100 µM | DLD-1 > 100 µM | DMS-114 > 100 µM | DMS-273 > 100 µM | EKVX > 100 µM | HCC 2998 > 100 µM | HCT-116 > 100 µM | HL-60 > 100 µM | HOP-18 > 100 µM | HOP-62 > 100 µM | HOP-92 36.3 µM | HT-29 > 100 µM | IGROV-1 > 100 µM | K562 > 100 µM | KM-20L2 > 100 µM | KM12 > 100 µM | LOX IMVI > 100 µM | LXFL 529 34.9 µM | M14 > 100 µM | M19-MEL > 100 µM | MOLT-4 > 100 µM | NCI-H23 > 100 µM | NCI-H460 > 100 µM | NCI-H522 > 100 µM | OVCAR-3 > 100 µM | OVCAR-4 > 100 µM | OVCAR-5 > 100 µM | OVCAR-8 > 100 µM | RPMI-8226 > 100 µM | RXF 631 > 100 µM | SF-268 > 100 µM | SF-295 > 100 µM | SF-539 > 100 µM | SK-MEL-28 54.2 µM | SK-MEL-5 > 100 µM | SK-OV-3 > 100 µM | SN12C > 100 µM | SNB-19 > 100 µM | SNB-75 78.3 µM | SNB-78 > 100 µM | SR > 100 µM | SW-620 > 100 µM | TK-10 > 100 µM | U-251 > 100 µM | UACC-257 28.5 µM | UACC-62 > 100 µM | UO-31 41.6 µM | XF498 > 100 µM
> 100 µM: HCT-15
active: RXF 393 0.192 µM

CC1(C)CCC[C@@]2(C)C1CCC1(C)C(CCc3ccoc3)/C(=C/OS(=O)(=O)O)CCC12 (stereo partly drawn)
49.5 µM: HCT-15
inactive: 786-0 > 100 µM | A498 > 100 µM | A549 > 100 µM | ACHN > 100 µM | CAKI-1 > 100 µM | CCRF-CEM 25.4 µM | COLO 205 54.6 µM | DLD-1 34.5 µM | DMS-114 34.6 µM | DMS-273 > 100 µM | EKVX > 100 µM | HCC 2998 > 100 µM | HCT-116 16.5 µM | HL-60 37.1 µM | HOP-18 > 100 µM | HOP-62 > 100 µM | HOP-92 23.9 µM | HT-29 40.9 µM | IGROV-1 > 100 µM | K562 31.2 µM | KM-20L2 38.2 µM | KM12 > 100 µM | LOX IMVI > 100 µM | LXFL 529 50 µM | M14 42.7 µM | M19-MEL > 100 µM | MOLT-4 23.6 µM | Malme-3M > 100 µM | NCI-H226 54.8 µM | NCI-H23 50.4 µM | NCI-H460 > 100 µM | OVCAR-3 > 100 µM | OVCAR-4 52.5 µM | OVCAR-5 > 100 µM | OVCAR-8 > 100 µM | RPMI-8226 33.7 µM | RXF 393 61.9 µM | RXF 631 > 100 µM | SF-268 > 100 µM | SF-295 49.9 µM | SF-539 > 100 µM | SK-MEL-28 58.7 µM | SK-MEL-2 58.5 µM | SK-MEL-5 > 100 µM | SK-OV-3 71.9 µM | SN12C > 100 µM | SNB-19 > 100 µM | SNB-75 > 100 µM | SNB-78 45.2 µM | SR 23.1 µM | SW-620 54.3 µM | TK-10 > 100 µM | U-251 57.5 µM | UACC-257 > 100 µM | UACC-62 > 100 µM | UO-31 72.3 µM | XF498 > 100 µM
